These results are taken from patent US11542210B2, “Method of producing a monoammonium phosphate containing fertilizer solution” (Liquigro Holdings (Proprietary) Limited, priority 2016, dated 2023).

The data set has as its system Maize. In words: Crop application - vegetative growth (maize): spray application, damage to the plants. The data set is classed as in vivo. The source says: When using MAP technical, it is only possible to spray a maximum of 1 kg P per ha before damage is inflicted on the plants.

Molecules are shown by their SMILES.

With `N.O=P(O)(O)O` [MAP technical, monoammonium phosphate (technical)], the “maximum that can be sprayed before damage is inflicted on the plants” value is given as no more than 1 kg P per ha.
